From patent publication US9511058B2, “Methods for using carboxamide, sulfonamide and amine compounds” (Rigel Pharmaceuticals, Inc., priority 2010, dated 2016)

target: AMPK; assay: AMPK activation, enzyme-linked immunosorbent assay; type: biochemical; conditions: compounds of Table 1 (Table 6)

Q: Which EC50 does the source give for `CC(C)(C)OC(=O)N1CCC(NC(=O)c2cc3cc(OC4CCN(c5ccc(C(F)(F)F)cc5)CC4)ccc3o2)CC1` [1-85, tert-butyl 4-(5-(1-(4-(trifluoromethyl)phenyl)piperidin-4-yloxy)benzofuran-2-carboxamido)piperidine-1-carboxylate] here?
A: 500 to 1000 nM

Q: Which EC50 does the source give for `O=C(O)c1ccc(CN2CCC(NC(=O)c3ccc(OC4CCN(c5ccc(C(F)(F)F)cc5)CC4)nc3)CC2)cc1` [1-46, 4-((4-(6-(1-(4-(trifluoromethyl)phenyl)piperidin-4-yloxy)nicotinamido)piperidin-1-yl)methyl)benzoic acid] here?
A: 1000 to 5000 nM

Q: How did the EC50 turn out when `O=C(NC1CCN(Cc2cccnc2)CC1)c1cc2ccc(OC3CCN(c4ccc(OC(F)(F)F)cc4)CC3)cc2o1` [1-95, N-(1-(pyridin-3-ylmethyl)piperidin-4-yl)-6-(1-(4-(trifluoromethoxy)phenyl)piperidin-4-yloxy)benzofuran-2-carboxamide] was run?
A: < 100 nM

Q: How did the EC50 turn out when `CC(C)(C)OC(=O)N1CCC(NC(=O)c2ccc(OC3CCN(c4ccc(C(F)(F)F)cc4)CC3)nc2)CC1` [1-9, tert-butyl 4-(6-(1-(4-(trifluoromethyl)phenyl)piperidin-4-yloxy)nicotinamido)piperidine-1-carboxylate] was run?
A: 100 to 500 nM

Q: With `N#Cc1ccc(CN2CCC(Oc3ccc4oc(C(=O)NC5CCN(Cc6ccccc6)CC5)cc4c3)CC2)cc1` [1-70, N-(1-benzylpiperidin-4-yl)-5-(1-(4-cyanobenzyl)piperidin-4-yloxy)benzofuran-2-carboxamide] as the molecule, how does the EC50 read?
A: < 100 nM

Q: With `N#Cc1ccc(CN2CCC(NS(=O)(=O)c3ccc(OC4CCN(c5ccc(C(F)(F)F)cc5)CC4)nc3)CC2)cc1` [1-56, N-(1-(4-cyanobenzyl)piperidin-4-yl)-6-(1-(4-(trifluoromethyl)phenyl)piperidin-4-yloxy)pyridine-3-sulfonamide] as the molecule, how does the EC50 read?
A: 5000 to 10000 nM

Q: For `O=C(NC1CCN(Cc2cn(C(c3ccccc3)(c3ccccc3)c3ccccc3)cn2)CC1)c1ccc(OC2CCN(c3ccc(C(F)(F)F)cc3)CC2)cn1` [1-47, 5-(1-(4-(trifluoromethyl)phenyl)piperidin-4-yloxy)-N-(1-((1-trityl-1H-imidazol-4-yl)methyl)piperidin-4-yl)picolinamide], which EC50 is on record?
A: 1000 to 5000 nM

Q: `O=S(=O)(NC1CCN(Cc2ccc(C(F)(F)F)cc2)CC1)c1ccc(OC2CCN(c3ccc(C(F)(F)F)cc3)CC2)nc1` [1-58, N-(1-(4-(trifluoromethyl)benzyl)piperidin-4-yl)-6-(1-(4-(trifluoromethyl)phenyl)piperidin-4-yloxy)pyridine-3-sulfonamide] was tested. Which EC50 did it give?
A: < 100 nM

Q: Which EC50 does the source give for `N#Cc1ccc(N2CCC(Oc3ccc(C(=O)NC4CCN(Cc5ccncc5)CC4)nc3)CC2)cc1` [1-1, 5-(1-(4-cyanophenyl)piperidin-4-yloxy)-N-(1-(pyridin-4-ylmethyl)piperidin-4-yl)picolinamide] here?
A: 100 to 500 nM

Q: For `O=C(NC1CCNCC1)c1cc2ccc(OC3CCN(c4ccc(C(F)(F)F)cc4)CC3)cc2s1` [1-141, N-(piperidin-4-yl)-6-(1-(4-(trifluoromethyl)phenyl)piperidin-4-yloxy)benzo[b]thiophene-2-carboxamide], which EC50 is on record?
A: 100 to 500 nM

Q: With `CC(C)(C)OC(=O)NCCCNC(=O)c1ccc(OC2CCN(c3ccc(C(F)(F)F)cc3)CC2)cn1` [1-49, tert-butyl 3-(5-(1-(4-(trifluoromethyl)phenyl)piperidin-4-yloxy)picolinamido) propylcarbamate] as the molecule, how does the EC50 read?
A: < 100 nM

Q: How did the EC50 turn out when `O=C(NC1CCN(Cc2ccncc2)CC1)c1cc2cc(OC3CCN(Cc4ccc(Cl)cc4)CC3)ccc2o1` [1-77, 5-(1-(4-chlorobenzyl)piperidin-4-yloxy)-N-(1-(pyridin-4-ylmethyl)piperidin-4-yl)benzofuran-2-carboxamide] was run?
A: 100 to 500 nM

Q: `O=C(NC1CCN(S(=O)(=O)c2cccnc2)CC1)c1cc2ccc(OC3CCN(c4ccc(C(F)(F)F)cc4)CC3)cc2o1` [1-106, N-(1-(pyridin-3-ylsulfonyl)piperidin-4-yl)-6-(1-(4-(trifluoromethyl)phenyl)piperidin-4-yloxy)benzofuran-2-carboxamide] was tested. Which EC50 did it give?
A: 100 to 500 nM

same assay, conditions: compounds of Table 2 (Table 7)

Q: `O=C(NC1CCN(Cc2cccnc2)CC1)c1ccc2[nH]c3c(c2c1)CN(Cc1ccc(C(F)(F)F)cc1)CC3` [2-11, N-(1-(pyridin-3-ylmethyl)piperidin-4-yl)-2-(4-(trifluoromethyl)benzyl)-2,3,4,5-tetrahydro-1H-pyrido [4,3-b]indole-8-carboxamide] was tested. Which EC50 did it give?
A: < 500 nM

Q: With `CC(C)(C)OC(=O)N1CCC(NC(=O)c2ccc3[nH]c4c(c3c2)CN(Cc2ccc(C(F)(F)F)cc2)CC4)CC1` [2-6, tert-butyl 4-(2-(4-(trifluoromethyl)benzyl)-2,3,4,5-tetrahydro-1H-pyrido[4,3-b]indole-8-carboxamido) piperidine-1-carboxylate] as the molecule, how does the EC50 read?
A: 500 to 1000 nM

Q: For `Cn1c2c(c3cc(C(=O)NC4CCN(Cc5ccc(C#N)cc5)CC4)ccc31)CN(Cc1ccc(C(F)(F)F)cc1)CC2` [2-16], which EC50 is on record?
A: < 500 nM

Q: Which EC50 does the source give for `NC(=O)c1ccc(CN2CCc3[nH]c4ccc(C(=O)NC5CCN(C(=O)c6ccncc6)CC5)cc4c3C2)cc1` [2-46, 2-(4-carbamoylbenzyl)-N-(1-isonicotinoylpiperidin-4-yl)-2,3,4,5-tetrahydro-1H-pyrido [4,3-b]indole-8-carboxamide] here?
A: > 100000 nM

Q: For `N#Cc1ccc(CN2CCC(NC(=O)c3ccc4[nH]c5c(c4c3)CN(Cc3ccc(F)cc3)CC5)CC2)cc1` [2-9, N-(1-(4-cyanobenzyl)piperidin-4-yl)-2-(4-fluorobenzyl)-2,3,4,5-tetrahydro-1H-pyrido[4,3-b]indole-8-carboxamide], which EC50 is on record?
A: < 500 nM

same assay, conditions: compounds of Table 3 (Table 8)

Q: With `O=C(c1nc2ccc(OC3CCN(c4ccc(C(F)(F)F)cc4)CC3)cc2o1)N1CC2CC1CN2Cc1ccncc1` (centres unmarked) [3-8, (5-(pyridin-4-ylmethyl)-2,5-diazabicyclo[2.2.1]heptan-2-yl)(6-(1-(4-(trifluoromethyl)phenyl)piperidin-4-yloxy)benzo[d]oxazol-2-yl)methanone] as the molecule, how does the EC50 read?
A: 100 to 1000 nM

Q: `NC(=O)c1ccc(CN2CC3CC2CN3C(=O)c2nc3ccc(OC4CCN(c5ccc(C(F)(F)F)cc5)CC4)cc3o2)cc1` (centres unmarked) [3-9, 4-((5-(6-(1-(4-(trifluoromethyl)phenyl)piperidin-4-yloxy)benzo[d]oxazole-2-carbonyl)-2,5-diazabicyclo[2.2.1]heptan-2-yl)methyl)benzamide] was tested. Which EC50 did it give?
A: 100 to 1000 nM

Q: For `O=C(NC1CCN(Cc2cccnc2)CC1)c1ccc2c(c1)CN(Cc1ccc(F)cc1)CC2` [3-35, 2-(4-fluorobenzyl)-N-(1-(pyridin-3-ylmethyl)piperidin-4-yl)-1,2,3,4-tetrahydroisoquinoline-7-carboxamide], which EC50 is on record?
A: 1000 to 10000 nM

same assay, conditions: compounds of Table 4 (Table 9)

Q: Which EC50 does the source give for `O=C(N[C@H]1CCN(Cc2ccc(Cl)cc2)C1)c1ccc(C(=O)N2CCN(c3ccc(Cl)cc3)CC2)cn1` [4-7, N-(1-(4-chlorobenzyl)pyrrolidin-3-yl)-5-(4-(4-chlorophenyl)piperazine-1-carbonyl)picolinamide] here?
A: 1000 to 5000 nM

same assay, conditions: compounds of Table 5 (Table 10)

Q: With `CC(C)(C)OC(=O)N1CCC(NC(=O)c2ccc(OC3CCN(Cc4ccc(C#N)cc4)CC3)cc2)CC1` [5-78, tert-butyl 4-(4-(1-(4-cyanobenzyl)piperidin-4-yloxy)benzamido)piperidine-1-carboxylate] as the molecule, how does the EC50 read?
A: < 1000 nM

Q: For `CC(C)S(=O)(=O)N1CCC(NC(=O)c2ccc(OC3CCN(c4ccc(C(F)(F)F)cc4)CC3)c(F)c2)CC1` [5-34, 3-fluoro-N-(1-(isopropylsulfonyl)piperidin-4-yl)-4-(1-(4-(trifluoromethyl)phenyl)piperidin-4-yloxy)benzamide], which EC50 is on record?
A: < 1000 nM

Q: How did the EC50 turn out when `CN1CCC(NC(=O)c2ccc(OC3CCN(Cc4ccc(C(F)(F)F)cc4)CC3)c(Cl)c2)CC1` [5-58, 3-chloro-N-(1-methylpiperidin-4-yl)-4-(1-(4-(trifluoromethyl)benzyl)piperidin-4-yloxy)benzamide] was run?
A: 1000 to 10000 nM

Q: Which EC50 does the source give for `O=C(NC1CCN(Cc2ccccc2)CC1)c1cc(Cl)c(OC2CCN(Cc3ccc(F)c(F)c3)CC2)c(Cl)c1` [5-76, N-(1-benzylpiperidin-4-yl)-3,5-dichloro-4-(1-(3,4-difluorobenzyl)piperidin-4-yloxy)benzamide] here?
A: < 1000 nM

Q: For `COC(=O)c1ccc(CN2CCC(NC(=O)c3ccc(OC4CCN(c5ccc(C(F)(F)F)cc5)CC4)c(F)c3)CC2)cc1` [5-33, methyl 4-((4-(3-fluoro-4-(1-(4-(trifluoromethyl)phenyl)piperidin-4-yloxy)benzamido)piperidin-1-yl)methyl)benzoate], which EC50 is on record?
A: < 1000 nM

Q: With `O=C(NC1CCN(Cc2ccccc2)CC1)c1ccc(OC2CCN(Cc3ccc(Cl)c(Cl)c3)CC2)c(F)c1` [5-82, N-(1-benzylpiperidin-4-yl)-4-(1-(3,4-dichlorobenzyl)piperidin-4-yloxy)-3-fluorobenzamide] as the molecule, how does the EC50 read?
A: < 1000 nM

Q: For `Cc1ccc(CN2CCC(Oc3ccc(C(=O)NC4CCN(Cc5ccccc5)CC4)cc3F)CC2)cc1` [5-42, N-(1-benzylpiperidin-4-yl)-3-fluoro-4-(1-(4-methylbenzyl)piperidin-4-yloxy)benzamide], which EC50 is on record?
A: < 1000 nM

Q: With `COc1cc(C(=O)NC2CCN(Cc3ccccc3)CC2)ccc1OC1CCN(S(C)(=O)=O)CC1` [5-9, N-(1-benzylpiperidin-4-yl)-3-methoxy-4-(1-(methylsulfonyl)piperidin-4-yloxy)benzamide] as the molecule, how does the EC50 read?
A: 20000 to 50000 nM

Q: `O=C(c1ccc(OC2CCN(Cc3ccccc3)CC2)cc1)N1CCN(c2ccccc2)CC1` [5-103, (4-(1-benzylpiperidin-4-yloxy)phenyl)(4-phenylpiperazin-1-yl)methanone] was tested. Which EC50 did it give?
A: 20000 to 50000 nM

Q: How did the EC50 turn out when `O=C(NC1CCN(Cc2ccccc2)CC1)c1ccc(OC2CCN(Cc3cccc(C(F)(F)F)c3)CC2)c(Cl)c1` [5-60, N-(1-benzylpiperidin-4-yl)-3-chloro-4-(1-(3-(trifluoromethyl)benzyl)piperidin-4-yloxy)benzamide] was run?
A: < 1000 nM

Q: Which EC50 does the source give for `N#Cc1ccc(CN2CCC(Oc3ccc(C(=O)NC4CCN(Cc5ccc(Cl)cc5)CC4)cc3F)CC2)cc1` [5-70, N-(1-(4-chlorobenzyl)piperidin-4-yl)-4-(1-(4-cyanobenzyl)piperidin-4-yloxy)-3-fluorobenzamide] here?
A: < 1000 nM

Q: How did the EC50 turn out when `O=C(NC1CCN(Cc2ccccc2)CC1)c1ccc(OC2CCN(Cc3ccc(Cl)cc3)CC2)c(F)c1` [5-64, N-(1-benzylpiperidin-4-yl)-4-(1-(4-chlorobenzyl)piperidin-4-yloxy)-3-fluorobenzamide] was run?
A: < 1000 nM

Q: How did the EC50 turn out when `O=C(NC1CCN(Cc2ccccc2)CC1)c1cccc(OC2CCN(c3ccncc3)CC2)c1` [5-53, N-(1-benzylpiperidin-4-yl)-3-(1-(pyridin-4-yl)piperidin-4-yloxy)benzamide] was run?
A: 10000 to 20000 nM
